{"source": "paper PMC8877721", "about": "(Journal of medicinal chemistry, 2021)", "key": {"[1]": {"target": "T1, DNA polymerase γ (catalytic domain) (Homo sapiens, UniProt P54098)", "T1 sequence (P54098 1-1239)": "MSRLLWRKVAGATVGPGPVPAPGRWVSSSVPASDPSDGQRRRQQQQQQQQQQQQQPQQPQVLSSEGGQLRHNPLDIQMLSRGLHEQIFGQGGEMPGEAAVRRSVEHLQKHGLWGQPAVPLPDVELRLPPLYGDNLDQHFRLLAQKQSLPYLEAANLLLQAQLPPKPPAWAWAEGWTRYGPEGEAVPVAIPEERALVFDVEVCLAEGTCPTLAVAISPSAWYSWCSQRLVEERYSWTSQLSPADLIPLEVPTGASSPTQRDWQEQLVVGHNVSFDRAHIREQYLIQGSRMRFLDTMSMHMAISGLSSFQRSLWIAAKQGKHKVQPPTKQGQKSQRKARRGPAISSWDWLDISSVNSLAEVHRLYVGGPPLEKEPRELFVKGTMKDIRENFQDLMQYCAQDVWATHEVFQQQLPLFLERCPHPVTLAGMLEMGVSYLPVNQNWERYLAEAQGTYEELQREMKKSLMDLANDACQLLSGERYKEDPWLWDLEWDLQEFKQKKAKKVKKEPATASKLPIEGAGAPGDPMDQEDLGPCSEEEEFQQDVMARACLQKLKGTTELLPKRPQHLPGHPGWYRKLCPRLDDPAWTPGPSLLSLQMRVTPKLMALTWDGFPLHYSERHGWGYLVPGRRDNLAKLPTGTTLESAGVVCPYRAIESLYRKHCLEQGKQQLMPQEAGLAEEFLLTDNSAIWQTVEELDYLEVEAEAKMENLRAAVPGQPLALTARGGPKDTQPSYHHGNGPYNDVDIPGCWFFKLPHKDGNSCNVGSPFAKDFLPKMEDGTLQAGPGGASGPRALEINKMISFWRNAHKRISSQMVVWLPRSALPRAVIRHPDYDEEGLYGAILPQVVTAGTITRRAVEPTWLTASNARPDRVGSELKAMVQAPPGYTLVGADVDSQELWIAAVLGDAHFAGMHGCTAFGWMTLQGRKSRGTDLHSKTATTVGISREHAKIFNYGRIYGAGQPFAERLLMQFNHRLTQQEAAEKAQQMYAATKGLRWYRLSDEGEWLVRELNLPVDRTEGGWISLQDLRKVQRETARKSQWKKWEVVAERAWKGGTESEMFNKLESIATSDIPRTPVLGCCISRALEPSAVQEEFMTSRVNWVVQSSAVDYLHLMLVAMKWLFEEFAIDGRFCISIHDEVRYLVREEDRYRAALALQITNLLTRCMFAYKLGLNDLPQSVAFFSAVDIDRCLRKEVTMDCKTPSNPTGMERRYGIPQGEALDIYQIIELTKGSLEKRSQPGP", "assay": "Enzymatic incorporation of ddhCTP by DNA polymerase gamma", "format": "biochemical", "details": "100 μM nucleotide, 0, 10 or 20 min, gel electrophoresis"}, "ZIKV NS5 RdRp": {"target": "ZIKV NS5 RdRp (Zika virus, UniProt A0A024B7W1)", "sequence (A0A024B7W1 2521-3423)": "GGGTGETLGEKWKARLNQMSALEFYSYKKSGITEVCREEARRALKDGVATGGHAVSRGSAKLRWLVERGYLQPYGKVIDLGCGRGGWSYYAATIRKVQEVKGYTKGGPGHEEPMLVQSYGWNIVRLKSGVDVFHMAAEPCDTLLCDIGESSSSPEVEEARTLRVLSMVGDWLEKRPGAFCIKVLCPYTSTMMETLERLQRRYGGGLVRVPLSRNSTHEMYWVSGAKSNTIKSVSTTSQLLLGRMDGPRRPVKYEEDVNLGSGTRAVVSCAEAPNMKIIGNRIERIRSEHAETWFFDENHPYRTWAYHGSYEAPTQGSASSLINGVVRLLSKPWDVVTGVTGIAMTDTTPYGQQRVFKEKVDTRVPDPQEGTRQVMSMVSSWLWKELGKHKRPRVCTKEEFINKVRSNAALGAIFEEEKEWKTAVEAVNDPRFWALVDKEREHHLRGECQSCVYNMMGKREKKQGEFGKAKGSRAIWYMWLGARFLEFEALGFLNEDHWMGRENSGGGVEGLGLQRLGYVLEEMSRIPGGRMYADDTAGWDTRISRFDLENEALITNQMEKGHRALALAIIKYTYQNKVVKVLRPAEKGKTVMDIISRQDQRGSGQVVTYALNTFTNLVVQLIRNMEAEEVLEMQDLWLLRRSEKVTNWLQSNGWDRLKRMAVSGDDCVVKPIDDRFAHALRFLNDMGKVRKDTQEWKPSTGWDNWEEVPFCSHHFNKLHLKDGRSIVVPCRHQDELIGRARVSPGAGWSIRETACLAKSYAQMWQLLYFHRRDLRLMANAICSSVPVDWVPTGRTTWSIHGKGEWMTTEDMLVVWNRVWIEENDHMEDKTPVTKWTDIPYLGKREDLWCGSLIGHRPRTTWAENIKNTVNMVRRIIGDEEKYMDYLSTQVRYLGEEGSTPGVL", "assay": "ZIKV RdRp-catalyzed nucleotide incorporation", "format": "biochemical", "details": "synthetic ddhCTP"}, "Vero cells": {"system": "Vero cells", "assay": "Alamar Blue cell viability assay, Vero cells", "format": "cell-based", "details": "2 days in culture"}, "WNV": {"system": "WNV", "assay": "Antiviral plaque assay, WNV", "format": "cell-based, West Nile virus", "details": "MOI 0.1, 3 days post-infection"}, "HEK293 cells": {"system": "HEK293 cells", "details": "HEK293 cells exposed to ddhC, after 48 h; cited from earlier work"}, "HUH7 cells [2]": {"system": "HUH7 cells", "assay": "In cellulo metabolism of 1 and ddhC to ddhCTP in HUH7 cells", "format": "cell-based, human", "details": "100 μM"}, "ZIKV (strain PRABC59) [3]": {"system": "ZIKV (strain PRABC59)", "details": "1 mM ddhC over 24 h; cited from earlier work"}, "HUH7 cells [4]": {"system": "HUH7 cells", "assay": "Alamar Blue cell viability assay, HUH7 cells", "format": "cell-based, human", "details": "2 days in culture"}, "[5]": {"details": "PAMPA assay; cited from earlier work"}, "ZIKV (strain PRABC59) [6]": {"system": "ZIKV (strain PRABC59)", "assay": "Antiviral plaque assay, ZIKV", "format": "cell-based, Zika virus", "details": "for reduction in ZIKV virus levels: 0.1 mM dose, MOI 0.1, plaque titration 4 days post-infection"}}}
{"smiles": "Nc1ccn([C@@H]2OC(COP(=O)(O)OP(=O)(O)OP(=O)(O)O)=C[C@H]2O)c(=O)n1", "note": "[ddhCTP, 3’-Deoxy-3’,4’-didehydrocytidine-5’-triphosphate]", "values": [{"measurement": "substrate for DNA polymerase γ (in words)", "setting": "[1]", "value": "not a substrate"}, {"measurement": "mode of action in primer extension assay (in words)", "setting": "ZIKV NS5 RdRp", "value": "obligate chain terminator"}]}
{"smiles": "Nc1ccn([C@@H]2OC(CO)=C[C@H]2O)c(=O)n1", "note": "[ddhC, 3’-deoxy-3’,4’-didehydro-cytidine]", "values": [{"measurement": "cytotoxicity (in words)", "setting": "Vero cells", "value": "neither ddhC nor 1 were cytotoxic"}, {"measurement": "activity against WNV (in words)", "setting": "WNV; HUH7 cells", "value": "ineffective"}, {"measurement": "activity against WNV (in words)", "setting": "WNV; HUH7.5 cells", "value": "ineffective"}, {"measurement": "activity against WNV (in words)", "setting": "WNV; Vero cells", "value": "ineffective"}, {"measurement": "ddhCTP produced", "setting": "HEK293 cells", "value": "~ 100 μM"}, {"measurement": "dosed compound in HUH7 lysate 24 h following dosage (cell permeable)", "setting": "HUH7 cells [2]", "value": "detected"}, {"measurement": "reduction of ZIKV levels in infected Vero cells", "setting": "ZIKV (strain PRABC59) [3]", "value": "50-200 x"}, {"measurement": "cytotoxicity (in words)", "setting": "HUH7 cells [4]", "value": "neither ddhC nor 1 were cytotoxic"}]}
{"smiles": "CC(C)OC(=O)[C@H](C)N[P@](=O)(OC[C@H]1O[C@@H](n2ccc(=O)[nH]c2=O)[C@](C)(F)[C@@H]1O)Oc1ccccc1", "note": "[sofosbuvir]", "values": [{"measurement": "Papp", "setting": "[5]", "value": 0.046, "unit": "×10⁻⁶ cm/s"}]}
{"smiles": "CC(C)OC(=O)[C@H](C)NP(=O)(OCC1=C[C@@H](O)[C@H](n2ccc(N)nc2=O)O1)Oc1ccccc1", "note": "(stereo in doubt) [compound 1, Isopropyl ((S)-(((4R,5R)-5-(4-amino-2-oxopyrimidin-1(2H)-yl)-4-hydroxy-4,5-dihydrofuran-2-yl)methoxy)(phenoxy)phosphoryl)-L-alaninate]", "values": [{"measurement": "cytotoxicity (in words)", "setting": "Vero cells", "value": "neither ddhC nor 1 were cytotoxic"}, {"measurement": "reduction of WNV levels", "setting": "WNV; HUH7 cells", "value": "> 4", "unit": "log10 pfu/mL"}, {"measurement": "reduction of WNV levels", "setting": "WNV; HUH7.5 cells", "value": "> 4", "unit": "log10 pfu/mL"}, {"measurement": "activity against WNV (in words)", "setting": "WNV; Vero cells", "value": "inactive"}, {"measurement": "dosed compound in HUH7 lysate 24 h following dosage (cell permeable)", "setting": "HUH7 cells [2]", "value": "detected"}, {"measurement": "cytotoxicity (in words)", "setting": "HUH7 cells [4]", "value": "neither ddhC nor 1 were cytotoxic"}, {"measurement": "reduction in ZIKV virus levels", "setting": "ZIKV (strain PRABC59) [6]; HUH7 cells", "value": "> 1", "unit": "log10 pfu/mL"}, {"measurement": "reduction in ZIKV virus levels", "setting": "ZIKV (strain PRABC59) [6]; HUH7.5 cells", "value": "> 1", "unit": "log10 pfu/mL"}, {"measurement": "activity against ZIKV in Vero cells (in words)", "setting": "ZIKV (strain PRABC59) [6]; Vero cells, MOI 0.1, 4 days post-infection, compared with HUH7 and HUH7.5", "value": "weaker activity"}]}
